Measurements: patent US8802597B2, “Herbicidal pyrimidines” (E I du Pont de Nemours and Company, priority 2003, dated 2014)
Read-outs that look alike come from different tables or passages of the source.

Columns and labels:
Format in all cases: in vivo
[1] = system: Surinam grass (Brachiaria decumbens); assay: Test B pre/postemergence; conditions: Urochloa decumbens; for pest or weed control at 125 g/ha: 125 g ai/ha; for pest or weed control at 62 g/ha: 62 g ai/ha
Outline: (§1)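 Greenhouse whole-plant test; surfactant-containing non-phytotoxic solvent formulation; pre- and postemergence applications made simultaneously; post plants 2–18 cm, 1- to 4-leaf; visual scoring at 13–15 days on 0–100 scale relative to controls.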

[2] = system: barnyardgrass (Echinochloa crus-galli); assay: Test B pre/postemergence; conditions: Echinochloa crus-galli, scale 0 to 100 (0 no effect, 100 complete control); for pest or weed control at 62 g/ha: 62 g ai/ha; for pest or weed control at 125 g/ha: 125 g ai/ha
Outline: as §1

[3] = system: cocklebur (Xanthium strumarium); assay: Test B pre/postemergence; conditions: Xanthium strumarium; for pest or weed control at 62 g/ha: 62 g ai/ha; for pest or weed control at 125 g/ha: 125 g ai/ha
Outline: as §1

[4] = system: corn (Zea mays); assay: Test B pre/postemergence; conditions: Zea mays
Outline: as §1

[5] = system: crabgrass (Digitaria sanguinalis); assay: Test B pre/postemergence; conditions: Digitaria sanguinalis; for pest or weed control at 62 g/ha: 62 g ai/ha; for pest or weed control at 125 g/ha: 125 g ai/ha
Outline: as §1

[6] = system: giant foxtail (Setaria faberii); assay: Test B pre/postemergence; conditions: Setaria faberi; for pest or weed control at 125 g/ha: 125 g ai/ha; for pest or weed control at 62 g/ha: 62 g ai/ha
Outline: as §1

[7] = system: lambsquarters (Chenopodium album); assay: Test B pre/postemergence; conditions: Chenopodium album; for pest or weed control at 62 g/ha: 62 g ai/ha; for pest or weed control at 125 g/ha: 125 g ai/ha
Outline: as §1

[8] = system: morningglory (Ipomoea coccinea); assay: Test B pre/postemergence; conditions: Ipomoea; for pest or weed control at 62 g/ha: 62 g ai/ha; for pest or weed control at 125 g/ha: 125 g ai/ha
Outline: as §1

[9] = system: pigweed (Amaranthus retroflexus); assay: Test B pre/postemergence; conditions: Amaranthus retroflexus; for pest or weed control at 62 g/ha: 62 g ai/ha; for pest or weed control at 125 g/ha: 125 g ai/ha
Outline: as §1

[10] = system: velvetleaf (Abutilon theophrasti); assay: Test B pre/postemergence; conditions: Abutilon theophrasti; for pest or weed control at 62 g/ha: 62 g ai/ha; for pest or weed control at 125 g/ha: 125 g ai/ha
Outline: as §1

[11] = system: wheat (Triticum aestivum); assay: Test B pre/postemergence; conditions: Triticum aestivum, scale 0 to 100 (0 no effect, 100 complete control); for plant injury at 62 g/ha: 62 g ai/ha; for plant injury at 125 g/ha: 125 g ai/ha
Outline: as §1

[12] = system: blackgrass (Alopecurus myosuroides); assay: Test B postemergence; conditions: Alopecurus myosuroides, post-emergence, scale 0 to 100 (0 no effect, 100 complete control), read-out: Blackgrass plant response rating
Outline: as §1

[13] = system: wild oat (Avena fatua); assay: Test B postemergence; conditions: Avena fatua, post-emergence, scale 0 to 100 (0 no effect, 100 complete control), read-out: Oat, Wild plant response rating
Outline: as §1

[14] = system: barnyardgrass (Echinochloa crus-galli); assay: Test B flooded paddy test; conditions: Echinochloa crus-galli, Flood, scale 0 to 100, read-out: Plant response rating, Barnyardgrass
Outline: (§2)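 Plants were grown to the 2-leaf stage before treatment, then kept in a greenhouse for 13 to 15 days. Injury was rated visually against untreated controls on a 0 to 100 scale, where 0 is no effect and 100 is complete control.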

[15] = system: duck salad (Heteranthera limosa); assay: Test B flooded paddy test; conditions: Heteranthera limosa, Flood, scale 0 to 100, read-out: Plant response rating, Ducksalad
Outline: as §2

[16] = system: rice (Oryza sativa); assay: Test B flooded paddy test; conditions: Oryza sativa, Flood, scale 0 to 100, read-out: Plant response rating, Rice
Outline: as §2

[17] = system: umbrella sedge (Cyperus difformis); assay: Test B flooded paddy test; conditions: Cyperus difformis, Flood, scale 0 to 100, read-out: Plant response rating, Sedge, Umbrella
Outline: as §2

[18] = post-emergence, Postemergence, scale 0 to 100 (0 no effect, 100 complete control), read-out: Surinam Grass plant response rating
[19] = post-emergence, Postemergence, read-out: Barnyardgrass plant response rating
[20] = pre-emergence, Preemergence, read-out: Plant response rating, Barnyardgrass
[21] = post-emergence, Postemergence, scale 0 to 100 (0 no effect, 100 complete control), read-out: Cocklebur plant response rating
[22] = post-emergence, Postemergence, scale 0 to 100 (0 no effect, 100 complete control), read-out: Crabgrass plant response rating
[23] = post-emergence, Postemergence, scale 0 to 100 (0 no effect, 100 complete control), read-out: Foxtail, Giant plant response rating
[24] = post-emergence, Postemergence, scale 0 to 100 (0 no effect, 100 complete control), read-out: Lambsquarters plant response rating
[25] = post-emergence, Postemergence, scale 0 to 100 (0 no effect, 100 complete control), read-out: Morningglory plant response rating
[26] = post-emergence, Postemergence, scale 0 to 100 (0 no effect, 100 complete control), read-out: Pigweed plant response rating
[27] = post-emergence, Postemergence, scale 0 to 100 (0 no effect, 100 complete control), read-out: Velvetleaf plant response rating
[28] = post-emergence, Postemergence, read-out: Wheat plant response rating
[29] = pre-emergence, Preemergence, read-out: Plant response rating, Wheat

Nc1nc(C2CC2)nc(C(=O)OCc2ccccc2)c1Cl [Compound 78, phenylmethyl 6-amino-5-chloro-2-cyclopropyl-4-pyrimidinecarboxylate]
pest or weed control at 125 g/ha [1, 18]: 80% | pest or weed control at 62 g/ha [1, 18]: 60% | pest or weed control at 125 g/ha ([1]; pre-emergence, Preemergence, scale 0 to 100 (0 no effect, 100 complete control), read-out: Plant response rating, Surinam Grass): 90% | pest or weed control at 62 g/ha ([1]; pre-emergence, Preemergence, scale 0 to 100, 0 no effect, 100 complete control, read-out: Plant response rating, Surinam Grass): 60% | pest or weed control at 62 g/ha [2, 19]: 80% | pest or weed control at 125 g/ha [2, 19]: 90% | pest or weed control at 62 g/ha [2, 20]: 60% | pest or weed control at 125 g/ha [2, 20]: 70% | pest or weed control at 62 g/ha [3, 21]: 100% | pest or weed control at 125 g/ha [3, 21]: 100% | pest or weed control at 62 g/ha ([3]; pre-emergence, Preemergence, scale 0 to 100, 0 no effect, 100 complete control, read-out: Plant response rating, Cocklebur): 80% | pest or weed control at 125 g/ha ([3]; pre-emergence, Preemergence, scale 0 to 100 (0 no effect, 100 complete control), read-out: Plant response rating, Cocklebur): 100% | plant injury at 62 g/ha ([4]; post-emergence, Postemergence, 62 g ai/ha, scale 0 to 100 (0 no effect, 100 complete control), read-out: Corn plant response rating): 40% | plant injury at 125 g/ha ([4]; post-emergence, Postemergence, 125 g ai/ha, scale 0 to 100 (0 no effect, 100 complete control), read-out: Corn plant response rating): 80% | Corn plant response rating (crop injury, 0 = no effect, 100 = complete kill) at 62 g/ha ([4]; pre-emergence, Preemergence, 62 g ai/ha, scale 0 to 100, 0 no effect, 100 complete control): 30% | Corn plant response rating (crop injury, 0 = no effect, 100 = complete kill) at 125 g/ha ([4]; pre-emergence, Preemergence, 125 g ai/ha, scale 0 to 100 (0 no effect, 100 complete control)): 70% | pest or weed control at 62 g/ha [5, 22]: 60% | pest or weed control at 125 g/ha [5, 22]: 70% | pest or weed control at 62 g/ha ([5]; pre-emergence, Preemergence, scale 0 to 100, 0 no effect, 100 complete control, read-out: Plant response rating, Crabgrass): 80% | pest or weed control at 125 g/ha ([5]; pre-emergence, Preemergence, scale 0 to 100 (0 no effect, 100 complete control), read-out: Plant response rating, Crabgrass): 90% | pest or weed control at 125 g/ha [6, 23]: 70% | pest or weed control at 62 g/ha [6, 23]: 60% | pest or weed control at 125 g/ha ([6]; pre-emergence, Preemergence, scale 0 to 100 (0 no effect, 100 complete control), read-out: Plant response rating, Foxtail, Giant): 70% | pest or weed control at 62 g/ha ([6]; pre-emergence, Preemergence, scale 0 to 100, 0 no effect, 100 complete control, read-out: Plant response rating, Foxtail, Giant): 20% | pest or weed control at 62 g/ha [7, 24]: 100% | pest or weed control at 125 g/ha [7, 24]: 100% | pest or weed control at 62 g/ha ([7]; pre-emergence, Preemergence, scale 0 to 100, 0 no effect, 100 complete control, read-out: Plant response rating, Lambsquarters): 90% | pest or weed control at 125 g/ha ([7]; pre-emergence, Preemergence, scale 0 to 100 (0 no effect, 100 complete control), read-out: Plant response rating, Lambsquarters): 100% | pest or weed control at 62 g/ha [8, 25]: 100% | pest or weed control at 125 g/ha [8, 25]: 100% | pest or weed control at 62 g/ha ([8]; pre-emergence, Preemergence, scale 0 to 100, 0 no effect, 100 complete control, read-out: Plant response rating, Morningglory): 80% | pest or weed control at 125 g/ha ([8]; pre-emergence, Preemergence, scale 0 to 100 (0 no effect, 100 complete control), read-out: Plant response rating, Morningglory): 100% | pest or weed control at 62 g/ha [9, 26]: 80% | pest or weed control at 125 g/ha [9, 26]: 100% | pest or weed control at 62 g/ha ([9]; pre-emergence, Preemergence, scale 0 to 100, 0 no effect, 100 complete control, read-out: Plant response rating, Pigweed): 100% | pest or weed control at 125 g/ha ([9]; pre-emergence, Preemergence, scale 0 to 100 (0 no effect, 100 complete control), read-out: Plant response rating, Pigweed): 100% | pest or weed control at 62 g/ha [10, 27]: 70% | pest or weed control at 125 g/ha [10, 27]: 80% | pest or weed control at 62 g/ha ([10]; pre-emergence, Preemergence, scale 0 to 100, 0 no effect, 100 complete control, read-out: Plant response rating, Velvetleaf): 70% | pest or weed control at 125 g/ha ([10]; pre-emergence, Preemergence, scale 0 to 100 (0 no effect, 100 complete control), read-out: Plant response rating, Velvetleaf): 90% | plant injury at 62 g/ha [11, 28]: 50% | plant injury at 125 g/ha [11, 28]: 70% | plant injury at 62 g/ha [11, 29]: 30% | plant injury at 125 g/ha [11, 29]: 70% | pest or weed control at 62 g/ha ([12]; 62 g ai/ha): 20% | pest or weed control at 125 g/ha ([12]; 125 g ai/ha): 40% | pest or weed control at 62 g/ha ([13]; 62 g ai/ha): 50% | pest or weed control at 125 g/ha ([13]; 125 g ai/ha): 70% | pest or weed control at 125 g/ha ([14]; 125 g ai/ha): 0% | pest or weed control at 500 g/ha ([14]; 500 g ai/ha): 40% | pest or weed control at 125 g/ha ([15]; 125 g ai/ha): 20% | pest or weed control at 500 g/ha ([15]; 500 g ai/ha): 70% | plant injury at 125 g/ha ([16]; 125 g ai/ha): 20% | plant injury at 500 g/ha ([16]; 500 g ai/ha): 40% | pest or weed control at 125 g/ha ([17]; 125 g ai/ha): 10% | pest or weed control at 500 g/ha ([17]; 500 g ai/ha): 50%
